Laboratory results taken from US9187475B2, “Pyrrolopyridinone derivatives as TTX-S blockers” (RaQualia Pharma Inc., priority 2012, dated 2015).

What was measured:
Type in all cases: cell-based
human NaV1.3 channels = molecular target: T1, human NaV1.3 channels (Homo sapiens, UniProt Q9NY46); assay: FRET assay, HEK293 cells expressing human NaV1.3 channels; settings: read-out: activities against Nav1.3
T1 construct: expressed in transfected cells; host or cells: HEK293
Protocol: (§1) The ability of the pyrrolopyridinone derivatives of the formula (I) to inhibit the NaV1.3, Nav1.7 and Nav1.5 channels is measured by Fluorescence Resonance Energy Transfer (FRET) assay and electrophysiology assay described below.
(§2) This screen is used to determine the effects of compounds on human NaV1.3, human Nav1.7, and human Nav1.5 channels, utilising electrical field stimulation (EFS) system in 96-well plate format on FDSS (Hamamatsu Photonics) platform. The change of membrane potential is monitored with FRET dye pair, oxonol (DiSBAC2(3)) and coumarin (CC2-DMPE).
(§3) Each HEK293 cells expressing human NaV1.3 channels and HEK293 cells expressing human NaV1.5 channels are grown in T225 flasks, in a 5% CO2 humidified incubator to about 80% confluence. Media composition consists of Dulbecco's Modified Eagle Medium (high glucose), 10% FCS, 100 units/mL penicillin, 100 microgram/mL streptomycin and 500 microgram/mL Geneticin™. […]
(§4) The data are analyzed and reported as normalized ratios of intensities measured at […]. […]
(§5) This analysis is performed using a computerized specific program designed for FDSS generated data. Fluorescence ratio values are plotted using XLfit™ to determine an IC50 value for each compound.

human Nav1.7 channels = molecular target: T2, human Nav1.7 channels (Homo sapiens, UniProt Q15858); assay: FRET assay, CHO cells expressing human NaV1.7 channels; settings: read-out: activities against Nav1.7
T2 construct: expressed in transfected cells; host or cells: CHO
Protocol: as §1, §2
CHO cells expressing human NaV1.7 channels are grown in T225 flasks, in a 5% CO2 humidified incubator to about 80% confluence. Media composition consists of HAM/F12 with GlutaMAX™ I, 10% FCS, 100 units/mL penicillin and 100 microgram/mL hygromycin. […]
as §4, §5

human Nav1.5 channels = molecular target: T3, human Nav1.5 channels (Homo sapiens, UniProt Q14524); assay: FRET assay, HEK293 cells expressing human NaV1.5 channels; settings: read-out: activities against Nav1.5
T3 construct: expressed in transfected cells; host or cells: HEK293
T3 sequence (Q14524 whole entry): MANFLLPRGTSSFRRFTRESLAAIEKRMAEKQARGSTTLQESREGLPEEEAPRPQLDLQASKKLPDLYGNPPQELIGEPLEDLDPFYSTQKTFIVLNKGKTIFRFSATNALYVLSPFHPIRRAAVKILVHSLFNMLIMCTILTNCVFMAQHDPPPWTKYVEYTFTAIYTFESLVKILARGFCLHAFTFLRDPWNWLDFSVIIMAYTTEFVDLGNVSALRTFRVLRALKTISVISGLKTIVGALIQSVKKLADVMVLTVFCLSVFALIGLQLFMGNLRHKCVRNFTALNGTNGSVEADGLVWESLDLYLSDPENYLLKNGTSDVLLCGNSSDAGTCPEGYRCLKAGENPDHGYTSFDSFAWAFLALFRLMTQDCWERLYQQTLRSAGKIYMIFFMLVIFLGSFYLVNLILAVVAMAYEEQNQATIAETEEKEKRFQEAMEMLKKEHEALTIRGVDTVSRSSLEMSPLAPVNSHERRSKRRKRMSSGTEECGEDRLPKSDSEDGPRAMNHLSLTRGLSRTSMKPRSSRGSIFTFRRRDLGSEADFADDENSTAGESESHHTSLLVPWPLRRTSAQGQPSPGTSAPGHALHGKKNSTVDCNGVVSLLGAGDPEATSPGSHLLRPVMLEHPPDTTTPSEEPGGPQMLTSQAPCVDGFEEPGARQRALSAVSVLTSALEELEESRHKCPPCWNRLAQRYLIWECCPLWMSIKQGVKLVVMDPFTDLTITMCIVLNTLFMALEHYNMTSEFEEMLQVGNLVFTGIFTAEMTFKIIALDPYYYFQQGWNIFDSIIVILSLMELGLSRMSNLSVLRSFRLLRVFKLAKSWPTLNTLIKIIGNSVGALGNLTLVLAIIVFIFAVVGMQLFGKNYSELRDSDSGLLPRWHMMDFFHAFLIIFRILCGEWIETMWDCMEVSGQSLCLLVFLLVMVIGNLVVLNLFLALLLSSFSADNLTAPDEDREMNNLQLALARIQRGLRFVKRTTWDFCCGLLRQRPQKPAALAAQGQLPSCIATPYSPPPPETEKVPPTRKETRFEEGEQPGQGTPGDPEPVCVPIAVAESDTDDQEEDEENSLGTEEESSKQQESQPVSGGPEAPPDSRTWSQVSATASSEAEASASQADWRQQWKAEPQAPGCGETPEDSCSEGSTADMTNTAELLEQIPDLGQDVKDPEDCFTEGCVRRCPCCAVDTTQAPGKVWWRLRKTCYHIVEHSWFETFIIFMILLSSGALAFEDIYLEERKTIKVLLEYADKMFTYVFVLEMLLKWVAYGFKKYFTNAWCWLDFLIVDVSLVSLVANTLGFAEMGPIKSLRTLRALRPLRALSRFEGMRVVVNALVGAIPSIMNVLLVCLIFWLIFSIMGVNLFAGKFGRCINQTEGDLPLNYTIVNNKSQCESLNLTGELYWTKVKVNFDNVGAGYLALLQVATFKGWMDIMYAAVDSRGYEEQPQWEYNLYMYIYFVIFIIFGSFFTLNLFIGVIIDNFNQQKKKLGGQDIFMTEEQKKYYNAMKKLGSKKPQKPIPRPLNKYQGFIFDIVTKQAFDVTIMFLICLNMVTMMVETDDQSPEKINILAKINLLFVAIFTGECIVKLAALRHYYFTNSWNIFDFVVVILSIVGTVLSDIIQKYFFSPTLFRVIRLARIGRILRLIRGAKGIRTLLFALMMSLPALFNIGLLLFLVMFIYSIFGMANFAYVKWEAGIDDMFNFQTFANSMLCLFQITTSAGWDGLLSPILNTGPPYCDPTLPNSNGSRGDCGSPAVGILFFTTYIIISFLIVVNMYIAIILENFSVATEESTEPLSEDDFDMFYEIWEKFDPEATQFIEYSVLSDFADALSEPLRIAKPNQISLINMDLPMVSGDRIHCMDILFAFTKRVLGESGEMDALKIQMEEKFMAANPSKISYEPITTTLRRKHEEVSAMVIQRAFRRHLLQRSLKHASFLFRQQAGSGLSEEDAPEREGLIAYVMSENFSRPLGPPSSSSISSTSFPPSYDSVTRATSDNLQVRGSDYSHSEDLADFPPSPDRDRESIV
Protocol: as §1, §2, §3, §4, §5

human Nav1.7 (hSCN9A) = molecular target: T4, human Nav1.7 (hSCN9A) (Homo sapiens, UniProt Q15858); assay: Electrophysiology assay (whole cell patch clamp), human Nav1.7 (hSCN9A) expressing CHO cells; settings: dissociation constant for the inactivated state (Kinact); read-out: activities (Ki) against NaV1.7
T4 construct: expressed in transfected cells; host or cells: CHO
Protocol: (§6) Whole cell patch clamp recording is used to assess the efficacy or selectivity of Na channel blocker on human Nav1.3 (hSCN3A) expressing HEK293 cells or human Nav1.7 (hSCN9A) expressing CHO cells. Human Nav1.3 expressing HEK293 cells are grown in growth media which contain: Dulbecco's […] (DMEM), 10% heat-inactivated fetal bovine serum (FBS) (Hyclone Laboratories Inc), 100 microgram/mL penicillin/100 U/mL streptomycin, 150 microgram/mL Zeocin™, and 3 microgram/mL Geneticin. Human […], expressing CHO cells are grown in growth media which contain: HAM/F-12, 9% heat-inactivated FBS (Hyclone Laboratories Inc), and 100 microgram/mL penicillin/100 U/mL streptomycin, and 100 microgram/mL hygromycin.
(§7) Na channel expressing cells are dissociated by 0.05 trypsin-EDTA, and then seeded on cover glass for 24 to 48 hr. […]
(§8) The normalized steady-state inactivation curve is constructed using 2 sec (for vehicle) or 60 sec (for drugs) conditioning pulse to different potentials followed immediately by the test pulse to −10 mV. […] The affinity of drugs to resting state of Na channels (Kresting or Kt) is assessed by 30 msec test pulse from a negative holding potential of −120 or −130 mV, where virtually all channels are in the resting state. Kr value is calculated by a conventional 1:1 binding model: Kresting(Kr)={[drug]Imax,drug/(Imax,control−Imax,drug)} [Math.2] […]

human Nav1.3 (hSCN3A) = molecular target: T5, human Nav1.3 (hSCN3A) (Homo sapiens, UniProt Q9NY46); assay: Electrophysiology assay (whole cell patch clamp), human Nav1.3 (hSCN3A) expressing HEK293 cells; settings: dissociation constant for the inactivated state (Kinact); read-out: activities (Ki) against NaV1.3
T5 construct: expressed in transfected cells; host or cells: HEK293
T5 sequence (Q9NY46 whole entry): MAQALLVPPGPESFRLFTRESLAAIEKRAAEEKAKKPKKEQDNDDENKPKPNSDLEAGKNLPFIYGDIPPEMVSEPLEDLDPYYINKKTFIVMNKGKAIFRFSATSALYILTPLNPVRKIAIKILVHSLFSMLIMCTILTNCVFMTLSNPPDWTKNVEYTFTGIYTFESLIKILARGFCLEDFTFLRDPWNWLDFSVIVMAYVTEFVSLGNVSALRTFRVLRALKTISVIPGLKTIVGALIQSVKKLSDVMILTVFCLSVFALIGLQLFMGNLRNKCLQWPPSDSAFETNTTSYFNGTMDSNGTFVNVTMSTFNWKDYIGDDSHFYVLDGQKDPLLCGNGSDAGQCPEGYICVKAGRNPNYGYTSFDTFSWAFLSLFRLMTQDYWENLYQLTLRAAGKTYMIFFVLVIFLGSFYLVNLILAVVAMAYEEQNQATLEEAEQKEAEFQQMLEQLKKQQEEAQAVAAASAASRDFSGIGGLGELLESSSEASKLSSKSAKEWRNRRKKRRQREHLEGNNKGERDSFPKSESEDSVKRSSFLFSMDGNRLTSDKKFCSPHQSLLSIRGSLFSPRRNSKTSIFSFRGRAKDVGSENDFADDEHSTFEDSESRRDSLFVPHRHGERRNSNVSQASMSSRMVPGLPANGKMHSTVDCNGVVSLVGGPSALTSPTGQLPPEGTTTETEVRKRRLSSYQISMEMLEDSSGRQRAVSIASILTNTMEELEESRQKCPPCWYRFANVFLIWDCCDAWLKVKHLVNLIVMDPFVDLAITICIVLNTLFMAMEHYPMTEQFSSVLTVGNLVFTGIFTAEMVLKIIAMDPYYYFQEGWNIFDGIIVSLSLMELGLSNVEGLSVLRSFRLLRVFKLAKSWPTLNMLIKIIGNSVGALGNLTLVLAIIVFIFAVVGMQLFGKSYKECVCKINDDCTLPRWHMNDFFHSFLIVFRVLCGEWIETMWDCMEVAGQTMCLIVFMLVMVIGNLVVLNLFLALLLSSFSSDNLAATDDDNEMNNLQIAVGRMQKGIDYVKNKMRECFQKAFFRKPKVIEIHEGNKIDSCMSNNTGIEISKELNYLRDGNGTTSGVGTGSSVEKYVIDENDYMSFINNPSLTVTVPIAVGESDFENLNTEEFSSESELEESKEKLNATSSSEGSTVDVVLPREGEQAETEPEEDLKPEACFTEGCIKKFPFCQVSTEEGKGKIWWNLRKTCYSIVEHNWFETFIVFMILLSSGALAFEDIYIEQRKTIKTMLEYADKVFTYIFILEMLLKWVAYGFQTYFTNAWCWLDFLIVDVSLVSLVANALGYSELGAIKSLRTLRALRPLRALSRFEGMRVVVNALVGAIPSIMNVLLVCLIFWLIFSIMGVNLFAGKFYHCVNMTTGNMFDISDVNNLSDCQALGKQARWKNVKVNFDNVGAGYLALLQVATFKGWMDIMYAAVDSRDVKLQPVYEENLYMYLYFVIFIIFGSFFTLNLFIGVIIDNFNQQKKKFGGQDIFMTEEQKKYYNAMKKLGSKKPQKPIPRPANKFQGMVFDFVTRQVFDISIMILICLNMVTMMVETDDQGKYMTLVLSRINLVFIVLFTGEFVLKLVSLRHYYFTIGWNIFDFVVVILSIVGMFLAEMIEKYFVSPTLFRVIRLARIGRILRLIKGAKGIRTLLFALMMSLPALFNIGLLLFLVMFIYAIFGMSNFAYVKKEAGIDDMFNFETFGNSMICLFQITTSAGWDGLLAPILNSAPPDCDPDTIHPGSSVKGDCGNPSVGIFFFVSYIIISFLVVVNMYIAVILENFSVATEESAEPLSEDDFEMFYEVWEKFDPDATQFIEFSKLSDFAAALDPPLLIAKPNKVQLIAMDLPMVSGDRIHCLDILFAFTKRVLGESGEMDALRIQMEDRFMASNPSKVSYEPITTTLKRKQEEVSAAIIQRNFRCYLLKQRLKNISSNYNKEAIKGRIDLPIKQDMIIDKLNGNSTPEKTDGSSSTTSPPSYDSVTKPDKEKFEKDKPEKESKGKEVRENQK
Protocol: as §6, §7, §8

T1 sequence (Q9NY46 whole entry): as above

| IC50 (human NaV1.3 channels) | IC50 (human Nav1.7 channels) | Ki (human Nav1.7 (hSCN9A)) | Ki (human Nav1.3 (hSCN3A)) | Structure (SMILES) | IC50 (human Nav1.5 channels) |
| --- | --- | --- | --- | --- | --- |
| 0.44 µM | 1.1 µM | – | – | CC(=O)Nc1nccc2c1CN(C(C)c1cnc(OCC(F)(F)F)c(C)c1)C2=O (single isomer, unassigned) [Example 2, N-(2-(1-(5-methyl-6-(2,2,2-trifluoroethoxy)pyridin-3-yl)ethyl)-1-oxo-2,3-dihydro-1H-pyrrolo[3,4-c]pyridin-4-yl)acetamide] | > 30 µM |
| – | – | 0.091 µM | 0.14 µM | Cc1cc(C(C)N2Cc3c(ccnc3NC(=O)C(C)C)C2=O)cnc1OCC(F)(F)F (single isomer, unassigned) [Example 3, N-(2-(1-(5-methyl-6-(2,2,2-trifluoroethoxy)pyridin-3-yl)ethyl)-1-oxo-2,3-dihydro-1H-pyrrolo[3,4-c]pyridin-4-yl)isobutyramide] | – |
